Measurements from PubChem BioAssay AID248 (DTP/NCI, 2004).
“And” between values parts separate entries of the source, which are not always exact repeats. Equal entries are not always repeated. Inconclusive results and toxic doses are left out. No stated cut-off is given here; in the data, active means T/C of 150% or more; inactive means T/C below 125%.

Test system: L1210 leukemia ip in BDF1 mice, survival T/C
Test: NCI In Vivo Anticancer Drug Screen. Data for tumor model L1210 Leukemia (intraperitoneal) in B6D2F1 (BDF1) mice
Settings: endpoint: mean survival time, higher = longer survival
Outline: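 Tumor was transplanted into mice, which were then dosed with test compound or vehicle alone. Survival was recorded for each group, and the treated figure was expressed relative to the control figure.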

[1] = dose: 50.0 mg/kg/injection, schedule: Q01DX009 (ip), vehicle: saline with Tween-80
[2] = dose: 100.0 mg/kg/injection, schedule: Q01DX009 (ip), vehicle: saline with Tween-80
[3] = dose: 200.0 mg/kg/injection, schedule: Q01DX009 (ip), vehicle: saline with Tween-80
[4] = dose: 100.0 mg/kg/injection, schedule: Q01DX001 (ip), vehicle: saline
[5] = dose: 200.0 mg/kg/injection, schedule: Q01DX001 (ip), vehicle: saline
[6] = dose: 400.0 mg/kg/injection, schedule: Q01DX001 (ip), vehicle: saline
[7] = dose: 100.0 mg/kg/injection, schedule: Q04DX003 (ip), vehicle: saline with Tween-80
[8] = dose: 200.0 mg/kg/injection, schedule: Q04DX003 (ip), vehicle: saline with Tween-80
[9] = dose: 400.0 mg/kg/injection, schedule: Q04DX003 (ip), vehicle: saline with Tween-80
[10] = dose: 100.0 mg/kg/injection, schedule: Q04DX003 (ip), vehicle: Klucel (hydroxypropylcellulose) (HPC)
[11] = dose: 200.0 mg/kg/injection, schedule: Q04DX003 (ip), vehicle: Klucel (hydroxypropylcellulose) (HPC)
[12] = dose: 100.0 mg/kg/injection, schedule: Q01DX009 (ip), vehicle: Klucel (hydroxypropylcellulose) (HPC)
[13] = dose: 200.0 mg/kg/injection, schedule: Q01DX009 (ip), vehicle: Klucel (hydroxypropylcellulose) (HPC)

Measured: T/C

CC(=O)Nc1c(I)c(NC(C)=O)c(I)c(C(=O)O)c1I
inactive: [1] 105 % of control | [2] 99 % of control | [3] 108 % of control

COc1cc(Cc2nccc3cc(OC)c(OC)cc23)c([N+](=O)[O-])cc1OC
inactive: [4] 102 % of control | dose: 100.0 mg/kg/injection, schedule: Q04DX003 (ip), vehicle: saline sonified 106 % of control | [5] 96 % of control | dose: 200.0 mg/kg/injection, schedule: Q04DX003 (ip), vehicle: saline sonified 89 % of control | dose: 300.0 mg/kg/injection, schedule: Q01DX001 (ip), vehicle: saline 96 % of control | dose: 400.0 mg/kg/injection, schedule: Q04DX003 (ip), vehicle: saline sonified 92 % of control

O=C1C2CC=C(c3ccccc3)C1CCC2 (stereo not drawn)
inactive: dose: 75.0 mg/kg/injection, schedule: Q01DX001 (ip), vehicle: other 103 % of control | dose: 150.0 mg/kg/injection, schedule: Q01DX001 (ip), vehicle: other 97 % of control | dose: 300.0 mg/kg/injection, schedule: Q01DX001 (ip), vehicle: other 102 % of control

O=C1c2cccc(O)c2C(=O)c2c(O)cccc21
inactive: dose: 100.0 mg/kg/injection, schedule: Q01DX009 (ip), vehicle: saline 94 % of control | dose: 100.0 mg/kg/injection, schedule: Q04DX003 (ip), vehicle: saline 93 % of control | dose: 200.0 mg/kg/injection, schedule: Q01DX009 (ip), vehicle: saline 97 % of control | dose: 200.0 mg/kg/injection, schedule: Q04DX003 (ip), vehicle: saline 97 % of control | dose: 400.0 mg/kg/injection, schedule: Q01DX009 (ip), vehicle: saline 103 % of control | dose: 400.0 mg/kg/injection, schedule: Q04DX003 (ip), vehicle: saline 97 % of control

Oc1cccc(N=Cc2ccccc2O)c1
inactive: dose: 100.0 mg/kg/injection, schedule: Q01DX001 (ip), vehicle: Klucel (hydroxypropylcellulose) (HPC) 102 % of control | [4] 97 % of control | dose: 200.0 mg/kg/injection, schedule: Q01DX001 (ip), vehicle: Klucel (hydroxypropylcellulose) (HPC) 96 % of control | [5] 100 % of control | dose: 400.0 mg/kg/injection, schedule: Q01DX001 (ip), vehicle: Klucel (hydroxypropylcellulose) (HPC) 101 % of control | [6] 105 % of control

COc1cc(/C=N/NC(=O)c2ccncc2)cc(OC)c1OC
inactive: [2] 112 % of control | [7] 111 % of control | [3] 101 % of control | [8] 118 % of control | dose: 400.0 mg/kg/injection, schedule: Q01DX009 (ip), vehicle: saline with Tween-80 98 % of control | [9] 100 % of control

O=C(O)c1cccc2c1C(=O)c1c(Cl)cccc1C2=O
inactive: dose: 100.0 mg/kg/injection, schedule: Q04DX002 (ip), vehicle: Klucel (hydroxypropylcellulose) (HPC) 99 % of control | dose: 200.0 mg/kg/injection, schedule: Q04DX002 (ip), vehicle: Klucel (hydroxypropylcellulose) (HPC) 99 % of control | dose: 400.0 mg/kg/injection, schedule: Q04DX002 (ip), vehicle: Klucel (hydroxypropylcellulose) (HPC) 99 % of control

COC(=O)C1CCC(N)CC1 (stereo not drawn)
inactive: [4] 106 % of control and 105 % of control | [5] 104 % of control and 94 % of control | [6] 108 % of control and 96 % of control

Cc1ccc(NC(=S)Nc2ccccc2)cc1
inactive: [10] 97 % of control | [11] 107 % of control

Clc1ccc([PH+](c2ccc(Cl)cc2)c2ccc(Cl)cc2)cc1.Clc1ccc([PH+](c2ccc(Cl)cc2)c2ccc(Cl)cc2)cc1.[Cl][Hg][Cl]
inactive: dose: 6.25 mg/kg/injection, schedule: Q01DX009 (ip), vehicle: Klucel (hydroxypropylcellulose) (HPC) 108 % of control | dose: 12.5 mg/kg/injection, schedule: Q01DX009 (ip), vehicle: Klucel (hydroxypropylcellulose) (HPC) 94 % of control | dose: 25.0 mg/kg/injection, schedule: Q01DX009 (ip), vehicle: Klucel (hydroxypropylcellulose) (HPC) 97 % of control | dose: 50.0 mg/kg/injection, schedule: Q01DX009 (ip), vehicle: Klucel (hydroxypropylcellulose) (HPC) 96 % of control

O=[N+]([O-])c1ccc(N/N=C(\CCc2ccccc2)c2ccccc2)c([N+](=O)[O-])c1
inactive: [1] 93 % of control | [2] 96 % of control | [3] 86 % of control

C[CH2][Pb]([CH2]C)([CH2]C)[N]1C(=O)c2c(Cl)c(Cl)c(Cl)c(Cl)c2C1=O
inactive: dose: 12.5 mg/kg/injection, schedule: Q04DX002 (ip), vehicle: Klucel (hydroxypropylcellulose) (HPC) 107 % of control

CC(C)C(NC(=O)C1CSC(C)(C)N1C=O)C(=O)OC1CCCCC1 (stereo not drawn)
inactive: [7] 97 % of control | [8] 101 % of control | [9] 90 % of control

Cc1cccc(NC(=O)NCC(=O)N/N=C/c2cccc([N+](=O)[O-])c2)n1
inactive: [1] 93 % of control | [2] 90 % of control | [3] 88 % of control

CCCCCS(=O)(=O)N1CCCCCC1
inactive: dose: 100.0 mg/kg/injection, schedule: Q04DX002 (ip), vehicle: other 112 % of control | dose: 200.0 mg/kg/injection, schedule: Q04DX002 (ip), vehicle: other 87 % of control | dose: 400.0 mg/kg/injection, schedule: Q04DX002 (ip), vehicle: other 87 % of control

COc1ccc(C=Nc2ccccc2C(=O)O)cc1
inactive: dose: 100.0 mg/kg/injection, schedule: Q01DX001 (ip), vehicle: saline with Tween-80 108 % of control | dose: 200.0 mg/kg/injection, schedule: Q01DX001 (ip), vehicle: saline with Tween-80 105 % of control | dose: 400.0 mg/kg/injection, schedule: Q01DX001 (ip), vehicle: saline with Tween-80 93 % of control

Nc1ncnc2c1ncn2C1CC(O)C(O)CO1 (stereo not drawn)
inactive: [4] 105 % of control | [5] 106 % of control | [6] 105 % of control

CC12CC1(C)C(=O)OC2=O (stereo not drawn)
inactive: [7] 87 % of control | [8] 92 % of control

CCOC(=O)N(CC(C)C(=O)OC)C(C)C (stereo not drawn)
inactive: dose: 100.0 mg/kg/injection, schedule: Q01DX Z (ip), vehicle: saline 100 % of control | dose: 200.0 mg/kg/injection, schedule: Q01DX Z (ip), vehicle: saline 97 % of control

CNC(=S)N/N=C/c1ccc(OC)c(OC)c1OC
inactive: [12] 102 % of control | [13] 120 % of control | dose: 400.0 mg/kg/injection, schedule: Q01DX009 (ip), vehicle: Klucel (hydroxypropylcellulose) (HPC) 98 % of control

CSCCC(NC(=O)NS(=O)(=O)c1ccc(C)cc1)C(=O)O (stereo not drawn)
inactive: [7] 96 % of control | [8] 97 % of control | [9] 100 % of control

CCCCOCCOCCOc1ccc(Cl)cc1
inactive: dose: 100.0 mg/kg/injection, schedule: Q04DX002 (ip), vehicle: saline 100 % of control | dose: 200.0 mg/kg/injection, schedule: Q04DX002 (ip), vehicle: saline 113 % of control | dose: 400.0 mg/kg/injection, schedule: Q04DX002 (ip), vehicle: saline 100 % of control

CCOc1c(/C=N/NC(=O)c2ccccc2OC)cccc1OC
inactive: [12] 116 % of control | [10] 102 % of control | [13] 95 % of control | [11] 105 % of control | dose: 400.0 mg/kg/injection, schedule: Q04DX003 (ip), vehicle: Klucel (hydroxypropylcellulose) (HPC) 107 % of control

C1=C(c2ccccc2)c2c(c3ccccc3c3ccccc23)C(c2ccccc2)=CC1
inactive: dose: 50.0 mg/kg/injection, schedule: Q01DX001 (ip), vehicle: carboxymethylcellulose (CMC) 100 % of control | dose: 100.0 mg/kg/injection, schedule: Q01DX001 (ip), vehicle: carboxymethylcellulose (CMC) 100 % of control | dose: 200.0 mg/kg/injection, schedule: Q01DX001 (ip), vehicle: carboxymethylcellulose (CMC) 94 % of control | dose: 400.0 mg/kg/injection, schedule: Q01DX001 (ip), vehicle: carboxymethylcellulose (CMC) 94 % of control
